Test systems include EKVX NSCLC; UO-31 renal; COLO 205 colon; MDA-MB-231 breast; MALME-3M melanoma; A549 NSCLC; CCRF-CEM leukemia; 786-0 renal; T-47D breast; OVCAR-3 ovarian.
Common to all, as to test: NCI-60 cell line screen, 48 h

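Tested at 5 concentrations; 48 h exposure; 96-well plates; endpoints linearly interpolated, else capped at highest concentration. At the GI50, growth is halved. TGI marks complete inhibition of growth.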

For `Oc1cc(Br)cc2cc(Br)cnc12`, the TGI with EKVX NSCLC was 37.4 µM; with UO-31 renal, 29.4 µM; in the test on COLO 205 colon it was over 100 µM; with MDA-MB-231 breast it was 88.2 µM; with MALME-3M melanoma it was 58.2 µM; with A549 NSCLC, over 100 µM. For the same molecule, the TGI came to 6.27 µM in the test with CCRF-CEM leukemia, 71.1 µM with 786-0 renal and 8.41 µM with T-47D breast.

As to `Cc1cccc(/C=N/NC(=S)NC(C)(C)C)n1`, the TGI with UO-31 renal, in the test with COLO 205 colon, in the test on MDA-MB-231 breast, in the test on MALME-3M melanoma, with A549 NSCLC and with CCRF-CEM leukemia was over 100 µM throughout. Further, the TGI in the test with OVCAR-3 ovarian, in the test on 786-0 renal and in the test on T-47D breast was over 100 µM each time.

Take `C[N+](C)(C)c1nc(N)nc2c1ncn2C1OC(CO)C(O)C1O` (stereo unspecified): the TGI with EKVX NSCLC, in the test with UO-31 renal, in the test with COLO 205 colon, in the test on MDA-MB-231 breast, in the test on MALME-3M melanoma and in the test with A549 NSCLC was over 100 µM throughout. In addition, the TGI in the test on CCRF-CEM leukemia, in the test with OVCAR-3 ovarian, in the test on 786-0 renal and in the test on T-47D breast was over 100 µM throughout.

Take `Cc1cc2nnn(C3CCCO3)c2cc1C` (stereo unspecified): the TGI with EKVX NSCLC, in the test with COLO 205 colon, with MDA-MB-231 breast, with MALME-3M melanoma, in the test on A549 NSCLC and in the test on CCRF-CEM leukemia was over 100 µM in each case. The TGI in the test on OVCAR-3 ovarian, with 786-0 renal and in the test with T-47D breast was over 100 µM throughout.

On to `CCCCCCCCCC[C@@H](O)[C@H]1CC[C@@H]([C@H]2CC[C@H]([C@H](O)CCCCCCCCCC[C@@H]3CC(CC(C)=O)C(=O)O3)O2)O1` (stereo partly specified), for which the GI50 is 19.2 µM in the test on EKVX NSCLC; 15.2 µM in the test on UO-31 renal; 15.6 µM in the test with COLO 205 colon; 22.8 µM in the test with MDA-MB-231 breast; 14.3 µM in the test on A549 NSCLC; 18.1 µM in the test on OVCAR-3 ovarian. Further, the GI50 with T-47D breast is 2.99 µM. In addition, the TGI in the test on EKVX NSCLC was over 100 µM; with UO-31 renal it was 34.6 µM; in the test with COLO 205 colon it was 32.2 µM; with MDA-MB-231 breast it was over 100 µM; in the test with MALME-3M melanoma, 37.5 µM; in the test on A549 NSCLC it was over 100 µM. The TGI is over 100 µM with CCRF-CEM leukemia, 39.4 µM with OVCAR-3 ovarian, over 100 µM in the test on 786-0 renal and 69.4 µM in the test on T-47D breast.

As to `OCC(CO)CC1COc2ccccc2O1` (stereo unspecified), the TGI in the test on EKVX NSCLC, with UO-31 renal, in the test on COLO 205 colon, in the test on MDA-MB-231 breast, in the test with MALME-3M melanoma and in the test with A549 NSCLC was over 10 µM in each case. In addition, the TGI in the test with CCRF-CEM leukemia, with OVCAR-3 ovarian and in the test with T-47D breast was over 10 µM throughout.

On to `Cc1nc2ccccc2n1CCc1nc2ccccc2[nH]1`, for which the TGI with EKVX NSCLC, with UO-31 renal, with COLO 205 colon, in the test on MDA-MB-231 breast, in the test on MALME-3M melanoma and in the test on A549 NSCLC was over 100 µM in each case. For the same molecule, the TGI with CCRF-CEM leukemia, in the test with OVCAR-3 ovarian, in the test on 786-0 renal and with T-47D breast was over 100 µM in each case.

For the molecule `Cc1cc(C(C)(C)C)c(OCCCN2CCOCC2)c(C(C)(C)C)c1`, the TGI with EKVX NSCLC was 32.5 µM; in the test on UO-31 renal, 32.7 µM; in the test on COLO 205 colon it was 30.6 µM; in the test on MDA-MB-231 breast, 32.2 µM; in the test on MALME-3M melanoma, 35 µM; with A549 NSCLC, 32.5 µM. The TGI in the test with CCRF-CEM leukemia came to 33.2 µM; in the test on OVCAR-3 ovarian, 36.1 µM; with 786-0 renal, 31.9 µM; in the test on T-47D breast, 34.1 µM.

For the molecule `O/N=C1/CCCCC1NO` (stereo unspecified), the TGI in the test with EKVX NSCLC, with UO-31 renal, in the test on COLO 205 colon, in the test with MDA-MB-231 breast, in the test on MALME-3M melanoma and with A549 NSCLC was over 100 µM each time. Besides, the TGI in the test with CCRF-CEM leukemia, with OVCAR-3 ovarian, with 786-0 renal and with T-47D breast was over 100 µM each time.

As for `OCC1=C[C@@](COCc2ccccc2)(OCc2ccccc2)[C@@H](OCc2ccccc2)[C@@H]1OCc1ccccc1`, the TGI in the test on EKVX NSCLC was 51.4 µM; in the test on UO-31 renal it was 67.1 µM; with COLO 205 colon it was 23.9 µM; in the test on MDA-MB-231 breast, 25.4 µM; with MALME-3M melanoma it was 44.6 µM; in the test with A549 NSCLC it was 67.3 µM. Also, the TGI with CCRF-CEM leukemia amounted to 11 µM; in the test with OVCAR-3 ovarian it was 27.3 µM; in the test with 786-0 renal, 52.9 µM; in the test on T-47D breast it was 82.8 µM.

`CC1(C)CN=C(c2ccc3ccccc3c2O)N1`: the TGI in the test on EKVX NSCLC, in the test with UO-31 renal, in the test on COLO 205 colon, in the test on MDA-MB-231 breast, in the test on A549 NSCLC and in the test on CCRF-CEM leukemia was over 100 µM in each case. Further, the TGI in the test with OVCAR-3 ovarian, with 786-0 renal and with T-47D breast was over 100 µM throughout.

Regarding `Cc1ccc2c(=O)c3c(O)c4c(cc3n(C)c2c1)OC(C)(C)C=C4`, the TGI in the test on EKVX NSCLC, in the test with COLO 205 colon, with MDA-MB-231 breast, in the test with MALME-3M melanoma, in the test on A549 NSCLC and in the test with CCRF-CEM leukemia was over 10 µM each time. Further, the TGI in the test on OVCAR-3 ovarian, with 786-0 renal and in the test on T-47D breast was over 10 µM in each case.

Regarding `NC(=O)Nc1n[nH]c(-c2ccccc2)n1`, the TGI in the test on EKVX NSCLC, in the test with UO-31 renal, in the test with COLO 205 colon, in the test with MDA-MB-231 breast, with MALME-3M melanoma and in the test with A549 NSCLC was over 100 µM each time. Also, the TGI with CCRF-CEM leukemia, in the test with OVCAR-3 ovarian, with 786-0 renal and in the test with T-47D breast was over 100 µM each time.

Values taken from PubChem BioAssay (NCI).
